Experimental data reported in US20250051355A1, “COMPOUNDS, COMPOSITIONS, AND METHODS” (ACONCAGUA BIO, INC., priority 2023, published 2025).
pEC50: −log10 of the molar value.

What was measured:
[1] = target: T1, human calcitonin receptor (CTR) (Homo sapiens, UniProt P30988); assay: Calcitonin receptor (CTR) cAMP Assay; type: cell-based; details: COS7-human CTR Clone #2 cells, cAMP dynamic 2 kit; read-out: Calcitonin Receptor cAMP Stimulation Activity: EC50
T1 construct: expressed in transfected cells; host or cells: COS-7 (COS7-human CTR Clone #2)
T1 sequence (P30988 25-474): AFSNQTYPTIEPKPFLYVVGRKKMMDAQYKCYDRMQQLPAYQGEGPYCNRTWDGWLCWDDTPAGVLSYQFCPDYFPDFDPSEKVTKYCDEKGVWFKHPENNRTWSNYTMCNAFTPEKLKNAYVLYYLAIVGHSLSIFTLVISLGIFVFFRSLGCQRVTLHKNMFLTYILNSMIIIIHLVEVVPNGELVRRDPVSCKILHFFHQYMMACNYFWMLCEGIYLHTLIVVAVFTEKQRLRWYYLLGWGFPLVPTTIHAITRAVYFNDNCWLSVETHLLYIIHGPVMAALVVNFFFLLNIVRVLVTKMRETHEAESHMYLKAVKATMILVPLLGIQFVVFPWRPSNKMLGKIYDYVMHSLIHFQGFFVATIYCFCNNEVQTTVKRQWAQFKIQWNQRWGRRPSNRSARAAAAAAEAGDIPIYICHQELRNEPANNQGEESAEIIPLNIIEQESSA
Method in brief: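 COS-7 cells stably expressing human CTR (2000 cells/well) treated with 4-fold serially diluted compounds in HBSS/20 mM HEPES/0.5 mM IBMX/0.1% casein, 30 min at 37° C. cAMP quantified by HTRF (cAMP-d2 plus anti-cAMP cryptate, 1 h RT), fluorescence read at 665 and 615 nm.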

[2] = target: human calcitonin receptor (CTR) and RAMP3 (AMY3) (Homo sapiens, UniProt O60896+P30988); assay: Amylin Receptor cAMP Assay I; type: cell-based; details: COS-7/AMY3 cells, cAMP Hi-range Kit, read-out: Amylin Receptor cAMP Stimulation Activity: EC50
Method in brief: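 COS-7 cells stably co-expressing human CTR and RAMP3, 1000 cells/well, exposed to 4-fold serially diluted compound in DPBS with 0.5 mM IBMX and 0.1% BSA for 30 min at 37° C. cAMP accumulation measured by HTRF (cAMP-d2 plus anti-cAMP cryptate, 1 h room temperature), read at 665/615 nm.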

human calcitonin receptor (CTR) and RAMP3 (AMY3), sequence (O60896 24-148, one chain of several): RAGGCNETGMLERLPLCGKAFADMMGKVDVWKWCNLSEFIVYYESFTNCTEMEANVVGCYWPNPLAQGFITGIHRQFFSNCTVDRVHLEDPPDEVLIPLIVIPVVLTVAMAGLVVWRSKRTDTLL

## Cc1nnc(-c2c(CCC3CCOCC3)nc3c(c2-c2cc4ccnc(NCc5cccc(F)c5)c4s2)C(=O)N2CCC[C@@H]32)o1 [Compound 70]
[1]
  pEC50: 7.35
[2]
  pEC50: 6.09
